Measured values published in ChEMBL document CHEMBL4311992, “Discovery of 3-(((9H-purin-6-yl)amino)methyl)-4,6-dimethylpyridin-2(1H)-one derivatives as novel tubulin polymerization inhibitors for treatment of cancer” (Eur J Med Chem, 2019).

Legend:
[1] = target: Serine/threonine-protein kinase PLK1 (Homo sapiens) (UniProt P53350); test: Inhibition of recombinant full-length human Plk1 assessed as residual activity at 10 uM using casein as substrate measured after 40 mins in presence of [gamma33P]ATP by scintillation counting method
[2] = target: Protein kinase C epsilon type (Homo sapiens) (UniProt Q02156); test: Inhibition of recombinant human PKCepsilon (2 to end residues) assessed as residual activity at 10 uM using ERMRPRKRQGSVRRRV as substrate measured after 40 mins in presence of [gamma33P]ATP by scintillation counting method
[3] = organism: Homo sapiens; test: Inhibition of recombinant human MAPKAPK2 A399G mutant (46 to end residues) assessed as residual activity at 10 uM using KKLNRTLSVA as substrate measured after 40 mins in presence of [gamma33P]ATP by scintillation counting method
[4] = tested on: CDK18/Cyclin Y (Homo sapiens), Q07002+Q8ND76 [T166M]; test: Inhibition of recombinant full length human cyclinY/CDK18 T166M mutant assessed as residual activity at 10 uM using YRRAAVPPSPSLS as substrate measured after 40 mins in presence of [gamma33P]ATP by scintillation counting method; format: protein-complex assay
[5] = target: Cyclin-dependent kinase-like 4 (Homo sapiens) (UniProt Q5MAI5); test: Inhibition of human CDKL4 assessed as residual activity at 10 uM by radiometric method
Cyclin-dependent kinase-like 4 (Homo sapiens), sequence (Q5MAI5 whole entry): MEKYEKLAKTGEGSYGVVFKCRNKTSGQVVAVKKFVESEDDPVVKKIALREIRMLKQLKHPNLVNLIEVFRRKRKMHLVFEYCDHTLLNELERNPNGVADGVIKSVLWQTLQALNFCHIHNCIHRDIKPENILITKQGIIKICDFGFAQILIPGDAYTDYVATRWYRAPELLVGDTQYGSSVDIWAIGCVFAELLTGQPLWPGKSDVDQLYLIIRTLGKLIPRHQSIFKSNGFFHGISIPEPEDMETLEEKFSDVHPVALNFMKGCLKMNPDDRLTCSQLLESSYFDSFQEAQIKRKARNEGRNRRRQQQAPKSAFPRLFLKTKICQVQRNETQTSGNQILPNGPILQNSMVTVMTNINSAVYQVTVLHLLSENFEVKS

[6] = target: Testis-specific serine/threonine-protein kinase 4 (Homo sapiens) (UniProt Q6SA08); test: Inhibition of recombinant full-length human TSSK4 assessed as residual activity at 10 uM using KKLNRTLSFAEPG as substrate measured after 40 mins in presence of [gamma33P]ATP by scintillation counting method
[7] = organism: Homo sapiens; test: Inhibition of recombinant full-length human AURKA I31F mutant assessed as residual activity at 10 uM using LRRASLG as substrate measured after 40 mins in presence of [gamma33P]ATP by scintillation counting method
[8] = target: Serine/threonine-protein kinase B-raf (Homo sapiens) (UniProt P15056); test: Inhibition of recombinant human BRAF (416 to end residues) assessed as residual activity at 10 uM using myelin basic protein as substrate measured after 40 mins in presence of [gamma33P]ATP by scintillation counting method
[9] = target: Vascular endothelial growth factor receptor 1 (Homo sapiens) (UniProt P17948); test: Inhibition of recombinant human Flt1 (783 to end residues) assessed as residual activity at 10 uM using KKKSPGEYVNIEFG as substrate measured after 40 mins in presence of [gamma33P]ATP by scintillation counting method
Vascular endothelial growth factor receptor 1 (Homo sapiens), sequence (P17948 whole entry, the tested form may be a part): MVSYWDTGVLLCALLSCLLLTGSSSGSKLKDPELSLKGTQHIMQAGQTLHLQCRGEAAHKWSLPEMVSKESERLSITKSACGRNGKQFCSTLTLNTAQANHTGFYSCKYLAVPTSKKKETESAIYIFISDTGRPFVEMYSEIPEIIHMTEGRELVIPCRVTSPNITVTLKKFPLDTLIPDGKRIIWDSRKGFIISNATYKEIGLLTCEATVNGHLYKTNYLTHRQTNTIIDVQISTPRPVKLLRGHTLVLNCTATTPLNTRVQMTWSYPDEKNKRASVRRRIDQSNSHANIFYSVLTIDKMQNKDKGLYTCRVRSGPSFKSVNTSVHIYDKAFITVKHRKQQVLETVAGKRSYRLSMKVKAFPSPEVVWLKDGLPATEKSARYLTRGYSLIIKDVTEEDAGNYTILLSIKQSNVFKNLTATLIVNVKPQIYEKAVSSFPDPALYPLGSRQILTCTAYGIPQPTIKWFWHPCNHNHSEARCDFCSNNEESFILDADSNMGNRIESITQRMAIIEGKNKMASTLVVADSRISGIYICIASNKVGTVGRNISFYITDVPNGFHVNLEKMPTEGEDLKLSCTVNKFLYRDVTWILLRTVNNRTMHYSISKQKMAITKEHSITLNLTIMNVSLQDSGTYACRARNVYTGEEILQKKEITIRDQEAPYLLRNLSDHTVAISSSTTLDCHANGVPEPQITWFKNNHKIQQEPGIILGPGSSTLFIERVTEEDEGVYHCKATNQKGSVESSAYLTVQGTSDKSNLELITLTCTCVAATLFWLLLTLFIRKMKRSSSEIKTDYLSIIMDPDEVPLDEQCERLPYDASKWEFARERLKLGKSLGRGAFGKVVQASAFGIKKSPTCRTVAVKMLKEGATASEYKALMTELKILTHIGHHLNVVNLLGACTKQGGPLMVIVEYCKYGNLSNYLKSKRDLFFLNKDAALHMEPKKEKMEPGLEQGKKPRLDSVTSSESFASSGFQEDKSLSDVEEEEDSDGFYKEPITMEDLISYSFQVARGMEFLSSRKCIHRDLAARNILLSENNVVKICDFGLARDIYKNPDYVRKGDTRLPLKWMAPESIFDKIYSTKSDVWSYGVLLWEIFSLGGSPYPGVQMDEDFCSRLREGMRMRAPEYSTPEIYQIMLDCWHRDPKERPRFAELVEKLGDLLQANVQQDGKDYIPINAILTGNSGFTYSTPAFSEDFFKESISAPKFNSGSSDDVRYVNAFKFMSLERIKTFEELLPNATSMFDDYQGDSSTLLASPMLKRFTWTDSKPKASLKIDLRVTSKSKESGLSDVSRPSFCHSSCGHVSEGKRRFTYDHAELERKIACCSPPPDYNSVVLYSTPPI

[10] = tested on: Fibroblast growth factor receptor 2 (Homo sapiens), P21802 [N549H]; test: Inhibition of recombinant human FGFR2 N549H mutant (456 to 770 residues) assessed as residual activity at 10 uM using GGEEEEYFELVKKKK as substrate measured after 40 mins in presence of [gamma33P]ATP by scintillation counting method
[11] = tested on: Tyrosine-protein kinase ABL1 (Homo sapiens), P00519 [Q252H]; test: Inhibition of recombinant human ABL Q252H mutant (27 to end residues) assessed as residual activity at 10 uM using EAIYAAPFAKKK as substrate measured after 40 mins in presence of [gamma33P]ATP by scintillation counting method
[12] = target: Mitogen-activated protein kinase 10 (Homo sapiens) (UniProt P53779); test: Inhibition of recombinant full-length human JNK3 assessed as residual activity at 10 uM using peptide substrate measured after 40 mins in presence of [gamma33P]ATP by scintillation counting method
[13] = target: Serine/threonine-protein kinase STK11 (Homo sapiens) (UniProt Q15831); test: Inhibition of recombinant full-length human LKB1 assessed as residual activity at 10 uM using LSNLYHQGKFLQTFCGSPLYRRR as substrate measured after 40 mins in presence of [gamma33P]ATP by scintillation counting method
Serine/threonine-protein kinase STK11 (Homo sapiens), sequence (Q15831 whole entry): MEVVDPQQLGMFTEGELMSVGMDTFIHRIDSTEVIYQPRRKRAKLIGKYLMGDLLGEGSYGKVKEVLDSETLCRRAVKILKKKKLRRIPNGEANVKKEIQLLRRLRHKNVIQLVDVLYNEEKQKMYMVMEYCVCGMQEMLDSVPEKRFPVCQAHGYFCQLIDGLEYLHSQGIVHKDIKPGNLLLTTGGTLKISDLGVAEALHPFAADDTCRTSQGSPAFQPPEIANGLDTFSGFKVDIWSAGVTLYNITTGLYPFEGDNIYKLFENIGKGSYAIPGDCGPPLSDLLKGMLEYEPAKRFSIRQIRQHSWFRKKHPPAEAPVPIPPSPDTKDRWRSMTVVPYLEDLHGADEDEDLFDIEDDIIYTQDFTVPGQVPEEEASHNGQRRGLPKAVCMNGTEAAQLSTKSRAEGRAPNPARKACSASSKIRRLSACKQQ

[14] = target: SRSF protein kinase 3 (Homo sapiens) (UniProt Q9UPE1); test: Inhibition of recombinant full-length human MSSK1 assessed as residual activity at 10 uM using ERMRPRKRQGSVRRRV as substrate measured after 40 mins in presence of [gamma33P]ATP by scintillation counting method
[15] = target: Serine/threonine-protein kinase PAK 6 (Homo sapiens) (UniProt Q9NQU5); test: Inhibition of recombinant human PAK6 (382 to end residues) assessed as residual activity at 10 uM using RRRLSFAEPG as substrate measured after 40 mins in presence of [gamma33P]ATP by scintillation counting method
Serine/threonine-protein kinase PAK 6 (Homo sapiens), sequence (Q9NQU5 whole entry, looked up): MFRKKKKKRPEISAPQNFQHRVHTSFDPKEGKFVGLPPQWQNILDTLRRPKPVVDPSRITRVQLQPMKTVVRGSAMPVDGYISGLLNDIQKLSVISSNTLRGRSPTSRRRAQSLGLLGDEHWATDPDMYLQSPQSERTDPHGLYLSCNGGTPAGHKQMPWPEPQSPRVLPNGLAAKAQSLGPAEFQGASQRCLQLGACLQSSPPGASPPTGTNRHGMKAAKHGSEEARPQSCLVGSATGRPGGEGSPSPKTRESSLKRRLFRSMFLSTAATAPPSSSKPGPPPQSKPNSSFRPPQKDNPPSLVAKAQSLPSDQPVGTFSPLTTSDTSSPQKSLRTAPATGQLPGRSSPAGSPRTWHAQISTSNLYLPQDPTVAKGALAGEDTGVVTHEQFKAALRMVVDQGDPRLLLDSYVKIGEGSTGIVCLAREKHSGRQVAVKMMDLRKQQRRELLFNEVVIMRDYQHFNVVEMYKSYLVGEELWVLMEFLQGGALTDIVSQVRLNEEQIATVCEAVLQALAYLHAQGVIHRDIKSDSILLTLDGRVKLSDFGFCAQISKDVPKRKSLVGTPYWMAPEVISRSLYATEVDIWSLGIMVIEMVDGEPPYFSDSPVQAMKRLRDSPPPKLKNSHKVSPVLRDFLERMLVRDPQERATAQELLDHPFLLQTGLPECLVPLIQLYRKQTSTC

[16] = target: Serine/threonine-protein kinase pim-2 (Homo sapiens) (UniProt Q9P1W9); test: Inhibition of recombinant human Pim2 (2 to end residues) assessed as residual activity at 10 uM using RSRHSSYPAGT as substrate measured after 40 mins in presence of [gamma33P]ATP by scintillation counting method
[17] = target: Protein-tyrosine kinase 2-beta (Homo sapiens) (UniProt Q14289); test: Inhibition of recombinant full-length human Pyk2 assessed as residual activity at 10 uM using poly(Glu, Tyr) 4:1 as substrate measured after 40 mins in presence of [gamma33P]ATP by scintillation counting method
Protein-tyrosine kinase 2-beta (Homo sapiens), sequence (Q14289 whole entry, looked up): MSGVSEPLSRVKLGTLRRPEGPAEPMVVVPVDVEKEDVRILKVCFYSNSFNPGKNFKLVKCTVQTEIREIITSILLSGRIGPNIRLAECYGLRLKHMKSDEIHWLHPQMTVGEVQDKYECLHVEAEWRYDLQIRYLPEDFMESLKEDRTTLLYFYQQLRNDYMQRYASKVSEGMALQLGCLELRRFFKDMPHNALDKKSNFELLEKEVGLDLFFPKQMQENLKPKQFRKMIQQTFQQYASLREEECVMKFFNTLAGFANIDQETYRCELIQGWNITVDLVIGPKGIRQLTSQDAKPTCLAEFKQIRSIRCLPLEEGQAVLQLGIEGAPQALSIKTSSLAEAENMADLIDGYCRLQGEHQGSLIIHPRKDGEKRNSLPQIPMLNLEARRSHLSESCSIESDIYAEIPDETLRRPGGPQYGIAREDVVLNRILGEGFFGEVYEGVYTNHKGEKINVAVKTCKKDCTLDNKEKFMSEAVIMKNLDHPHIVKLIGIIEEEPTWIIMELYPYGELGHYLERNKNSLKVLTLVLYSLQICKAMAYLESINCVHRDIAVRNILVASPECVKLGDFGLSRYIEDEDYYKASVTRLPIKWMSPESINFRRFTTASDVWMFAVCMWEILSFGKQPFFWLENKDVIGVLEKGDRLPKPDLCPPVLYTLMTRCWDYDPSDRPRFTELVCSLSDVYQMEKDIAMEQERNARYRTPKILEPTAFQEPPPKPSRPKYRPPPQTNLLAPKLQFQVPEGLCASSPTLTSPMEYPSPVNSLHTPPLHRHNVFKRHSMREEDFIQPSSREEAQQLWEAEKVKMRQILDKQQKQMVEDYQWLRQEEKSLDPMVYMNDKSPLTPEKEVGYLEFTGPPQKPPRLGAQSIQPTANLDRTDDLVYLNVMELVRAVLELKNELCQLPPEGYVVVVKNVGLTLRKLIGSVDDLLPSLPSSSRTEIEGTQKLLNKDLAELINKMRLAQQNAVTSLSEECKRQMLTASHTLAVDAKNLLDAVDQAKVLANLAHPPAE

[18] = target: Serine/threonine-protein kinase VRK1 (Homo sapiens) (UniProt Q99986); test: Inhibition of human VRK1 assessed as residual activity at 10 uM by radiometric method
[19] = target: Tyrosine-protein kinase Yes (Homo sapiens) (UniProt P07947); test: Inhibition of recombinant full-length human Yes assessed as residual activity at 10 uM using poly(Glu, Tyr) 4:1 as substrate measured after 40 mins in presence of [gamma33P]ATP by scintillation counting method
Tyrosine-protein kinase Yes (Homo sapiens), sequence (P07947 2-543 limits assumed): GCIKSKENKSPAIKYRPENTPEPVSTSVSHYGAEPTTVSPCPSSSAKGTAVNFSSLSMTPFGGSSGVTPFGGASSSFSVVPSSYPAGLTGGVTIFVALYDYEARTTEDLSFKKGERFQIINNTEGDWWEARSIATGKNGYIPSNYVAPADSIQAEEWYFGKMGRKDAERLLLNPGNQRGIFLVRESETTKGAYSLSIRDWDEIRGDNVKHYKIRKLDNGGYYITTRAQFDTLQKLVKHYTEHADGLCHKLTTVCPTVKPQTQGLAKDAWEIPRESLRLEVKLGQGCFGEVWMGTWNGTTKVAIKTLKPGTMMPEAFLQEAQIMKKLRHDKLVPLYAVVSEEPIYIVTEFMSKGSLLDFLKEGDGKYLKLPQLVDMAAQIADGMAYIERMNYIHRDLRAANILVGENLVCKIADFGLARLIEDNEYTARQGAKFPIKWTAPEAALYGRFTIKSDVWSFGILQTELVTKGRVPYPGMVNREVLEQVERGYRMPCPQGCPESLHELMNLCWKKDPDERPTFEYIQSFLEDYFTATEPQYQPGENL

[20] = target: Tyrosine-protein kinase ZAP-70 (Homo sapiens) (UniProt P43403); test: Inhibition of recombinant full-length human ZAP70 assessed as residual activity at 10 uM using poly(Glu, Tyr) 4:1 as substrate measured after 40 mins in presence of [gamma33P]ATP by scintillation counting method
Tyrosine-protein kinase ZAP-70 (Homo sapiens), sequence (P43403 whole entry): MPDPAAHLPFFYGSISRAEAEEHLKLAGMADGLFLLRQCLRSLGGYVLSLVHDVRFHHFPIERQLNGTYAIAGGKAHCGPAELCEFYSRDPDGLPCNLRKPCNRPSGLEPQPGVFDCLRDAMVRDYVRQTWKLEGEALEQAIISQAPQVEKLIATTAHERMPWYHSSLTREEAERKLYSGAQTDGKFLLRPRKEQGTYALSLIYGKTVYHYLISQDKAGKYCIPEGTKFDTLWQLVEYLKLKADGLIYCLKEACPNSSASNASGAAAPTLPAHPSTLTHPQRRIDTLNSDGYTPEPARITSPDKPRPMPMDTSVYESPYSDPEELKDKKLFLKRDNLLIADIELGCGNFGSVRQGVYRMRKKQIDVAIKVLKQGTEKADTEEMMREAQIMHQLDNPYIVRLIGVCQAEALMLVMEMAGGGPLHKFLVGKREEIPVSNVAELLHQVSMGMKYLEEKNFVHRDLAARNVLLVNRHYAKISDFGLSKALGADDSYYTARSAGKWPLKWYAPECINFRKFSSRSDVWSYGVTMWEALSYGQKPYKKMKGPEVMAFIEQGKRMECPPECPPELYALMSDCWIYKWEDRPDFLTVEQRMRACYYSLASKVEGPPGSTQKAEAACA

[21] = target: Serine-protein kinase ATM (Homo sapiens) (UniProt Q13315); test: Inhibition of recombinant full-length human ATM assessed as residual activity at 10 uM using GST-cMyc-p53 as substrate measured after 40 mins by ELISA
[22] = Toxicity in nude BALB/c mouse assessed as change in AST level at 40 to 80 mg/kg, po once daily for 4 weeks measured post-last dose; format: organism-based; settings: in vivo, 672 h
[23] = tested on: HCT-116; test: Induction of apoptosis in human HCT116 cells assessed as necrotic cells at 100 nM measured after 48 hrs by Annexin V-FITC/propidium iodide staining-based flow cytometry (reference value: 1.16%); format: functional
[24] = tested on: HCT-116; test: Induction of apoptosis in human HCT116 cells assessed as viable cells at 100 nM measured after 48 hrs by Annexin V-FITC/propidium iodide staining-based flow cytometry (reference value: 94.5%); format: functional; settings: HCT-116, 48 h, read-out: Activity

## Cc1cc(C)c(CNc2nc(Cl)nc3c2ncn3C2CCCC2)c(=O)[nH]1
[1]
  Activity: 112%
[2]
  Activity: 95%
[3]
  Activity: 124%
[4]
  Activity: 101%
[5]
  Activity: 116%
[6]
  Activity: 138%
[7]
  Activity: 103%
[8]
  Activity: 122%
[9]
  Activity: 97.5%
[10]
  Activity: 88%
[11]
  Activity: 106%
[12]
  Activity: 142%
[13]
  Activity: 110%
[14]
  Activity: 130%
[15]
  Activity: 101%
[16]
  Activity: 104%
[17]
  Activity: 97%
[18]
  Activity: 92.5%
[19]
  Activity: 79%
[20]
  Activity: 95.5%
[21]
  Activity: 95.5%
[22]
  Activity: Non-Toxic
[23]
  Activity: 5.57%
[24]
  viability at 0.1 µM: 39%
